Measurements as given in patent publication US20230212202A1, “TREATMENT OF MGMT DEFICIENT CANCER WITH 2-FLUOROETHYL-SUBSTITUTED NITROSOUREAS AND OTHER COMPOUNDS” (YALE UNIVERSITY, priority 2021, published 2023).

How the values were obtained:
[1] = system: linearized pUC19 plasmid DNA; assay: In vitro DNA cross-linking assay; format: biochemical; settings: 100 µM, 6-36 hours
Description: Plasmid Linearization Assay. To set up the linearization reactions, 20 units of EcoRI-HF (New England Biolabs) was mixed with 20 µg 2686 bp pUC19 vector DNA in CutSmart buffer (New England Biolabs), pH 7.9, in a total volume of 1000 µL for 30 min at 37° C. The CutSmart buffer contains 50 mM potassium acetate, 20 mM Tris acetate, 10 mM magnesium acetate, and 100 µg/mL BSA. The reacted DNA was then purified using PCR cleanup kit and quantified using the NanoDrop One (Thermo Fisher). The DNA was then stored at -20° C. before use in in vitro DNA cross-linking assays or melting temperature analysis.
In Vitro DNA Cross-linking Assays. Linearized pUC19 DNA, prepared as described above, was used for in vitro DNA cross-linking assays. For each condition, 200 ng of linearized pUC19 DNA (15.4 µM base pairs) was incubated with the indicated concentration of drug in 20 µL. Drug stock concentrations were made in DMSO such that each reaction contained a fixed 5% DMSO concentration. Reactions were conducted in 100 mM Tris buffer (pH 7.4). Cisplatin (Sigma) and DMSO vehicle were used as positive and negative controls, respectively. Reactions were conducted between 3-96 h at 37° C. The DNA was stored at -80° C. until electrophoretic analysis. For gel electrophoresis, DNA concentration was preadjusted to 10 ng/µL. […]

[2] = system: LN229 MGMT-/MMR+ cells; assay: Genomic DNA denaturing gel electrophoresis; format: cell-based, human
Description: Genomic DNA Denaturing Gel Electrophoresis. Assay was adapted from N. Bossuet-Greif et al., The Colibactin Genotoxin Generates DNA Interstrand Cross-Links in Infected Cells. mBio 9, (2018). Cells were trypsinized, washed with 1X PBS, and stored at -80° C. prior to processing. Genomic DNA was extracted with the DNeasy Blood & Tissue Kit (Qiagen) per kit protocol. A 0.7% agarose gel was prepared in 100 mM NaCl-2mM EDTA (pH 8) and soaked in 40 mM NaOH-1 mM EDTA running buffer for 2 h. Genomic DNA (400 ng/well) was then loaded in 1X BlueJuice loading buffer (Invitrogen) and subjected to electrophoresis at 2 V/cm for 30 min, followed by 3 V/cm for 2 h. The gel was neutralized in 150 mM NaCl-100 mM Tris (pH 7.4) for 30 min, twice, and then stained with 1X SYBR Gold in 150 mM NaCl-100 mM Tris (pH 7.4) for 90 min. Imaging was performed on a ChemiDoc XRS+ Molecular Imager (Bio-Rad).

[3] = system: BJ fibroblast cells
Description: Short-term Cell Viability Assay. Cells were seeded in 96-well plates at 1000 or 2000 cells/well and allowed to adhere at 23° C. for 60 min and then incubated overnight at 37° C. […] Cells were imaged on a Cytation 3 imaging reader (BioTek) and quantified using CellProfiler software.

[4] = system: LN229 MGMT+/-, MMR+/- cells; assay: Micronuclei analysis; format: cell-based, human; settings: 20 µM, 48 h
From the text: Micronuclei Analysis. An automated image analysis pipeline was developed by YCMD using InCell Analyzer software to quantify micronuclei formation. Nuclei and micronuclei were segmented based on Hoechst nucleic acid dye staining channel. A perinuclear margin was applied around the nuclei to approximate the extent of the cytoplasm and identify micronuclei associated with the parent nucleus. Cells with nuclei associated with at least 1 micronucleus were considered positive.

[5] = system: LN229 MGMT-/MMR- flank tumors; assay: Xenograft flank tumor model; format: in vivo, mouse
[6] = system: LN229 MGMT-/MMR+ flank tumors

SMILES: NC(=O)c1ncn2c(=O)n(CCF)nnc12 [KL-50]
- ICLs in plasmid DNA [1]: possessed ICLs, with delayed rates of formation relative to 12b
- crosslinked genomic DNA [2]: presence of crosslinked DNA
- cytotoxicity in normal human fibroblast cells [3]: no increase in toxicity
- micronuclei formation [4]: significant increase in micronuclei
- tumor growth ([5]; 5 mg/kg MWF × 3 weeks, P.O.): potently suppressed tumor growth
- increase in median OS vs TMZ ([5]; Kaplan-Meier): greater than 5 week
- median OS ([5]; Kaplan-Meier, 5 mg/kg MWF × 3 weeks): greater than 15 weeks
- tumor growth ([6]; 5 mg/kg MWF × 3 weeks, P.O.): statistically non-inferior to TMZ (1a)
- body weight ([6]; LN229 flank tumor experiments, compared to TMZ or control): no significant changes in body weight
